Measurements published in PubChem BioAssay (NCI).
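Grown in 96-well plates, cells were treated for 48 hours with each compound at five concentrations. Insufficient inhibition: endpoint recorded as highest concentration tested. Here, GI50 denotes the concentration required for 50% inhibition of growth. Definition used: TGI = concentration required for complete inhibition of growth.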

What was measured:
Experiment in all cases: NCI anticancer screen, dose series, 48 h
[1] = system: HCT-116 colon
[2] = system: MCF7 breast
[3] = system: UACC-257 melanoma
[4] = system: SNB-75 CNS
[5] = system: OVCAR-8 ovarian
[6] = system: MDA-MB-231 breast
[7] = system: T-47D breast
[8] = system: SNB-19 CNS
[9] = system: NCI-H23 lung
[10] = system: RPMI-8226 leukemia
[11] = system: SF-295 CNS
[12] = system: ACHN renal
[13] = system: COLO 205 colon
[14] = system: A549 NSCLC
[15] = system: SK-MEL-28 melanoma
[16] = system: U251 CNS
[17] = system: EKVX NSCLC
[18] = system: NCI-H522 lung
[19] = system: A498 renal
[20] = system: HT29 colon
[21] = system: SN12C renal
[22] = system: M14 melanoma
[23] = system: SW-620 colon
[24] = system: HOP-92 NSCLC
[25] = system: TK-10 renal
[26] = system: CAKI-1 renal
[27] = system: NCI-H460 lung
[28] = system: 786-0 renal
[29] = system: OVCAR-3 ovarian
[30] = system: OVCAR-5 ovarian
[31] = system: DU-145 prostate
[32] = system: UO-31 renal
[33] = system: SK-MEL-2 melanoma
[34] = system: SK-MEL-5 melanoma
[35] = system: CCRF-CEM leukemia
[36] = system: IGROV1 ovarian
[37] = system: HCC-2998 colon
[38] = system: PC-3 prostate
[39] = system: MDA-MB-435
[40] = system: KM12 colon
[41] = system: SK-OV-3 ovarian
[42] = system: UACC-62 melanoma
[43] = system: HL-60(TB) leukemia
[44] = system: HOP-62 NSCLC
[45] = system: HCT-15 colon
[46] = system: K-562 leukemia
[47] = system: NCI-H226 lung
[48] = system: OVCAR-4 ovarian
[49] = system: HS 578T breast
[50] = system: BT-549 breast
[51] = system: MOLT-4 leukemia
[52] = system: SF-539 CNS
[53] = system: SF-268 CNS
[54] = system: RXF 393 renal
[55] = system: NCI/ADR-RES ovarian

COc1cc2nc(Cl)nc(Nc3cccc(C(=O)/C=C/c4ccccc4)c3)c2cc1OC
GI50 [1]: 1.62 µM
TGI [1]: 5.16 µM
GI50 [2]: 1.81 µM
TGI [2]: > 100 µM
GI50 [3]: > 31.2 µM
TGI [3]: > 100 µM
GI50 [4]: 2.06 µM
TGI [4]: 8.61 µM
GI50 [5]: 4.99 µM
TGI [5]: > 100 µM
GI50 [6]: 6.4 µM
TGI [6]: > 92.4 µM
GI50 [7]: > 30.3 µM
TGI [7]: > 100 µM
GI50 [8]: 2.96 µM
TGI [8]: > 31.8 µM
GI50 [9]: 6.63 µM
TGI [9]: > 100 µM
GI50 [10]: 0.622 µM
TGI [10]: 3.48 µM
TGI [11]: > 44.2 µM
GI50 [12]: 3.51 µM
TGI [12]: > 100 µM
GI50 [13]: 11.4 µM
TGI [13]: > 100 µM
GI50 [14]: > 38.7 µM
TGI [14]: > 100 µM
GI50 [15]: 5.03 µM
TGI [15]: > 100 µM
GI50 [16]: 2.97 µM
TGI [16]: > 38.1 µM
GI50 [17]: > 33.7 µM
TGI [17]: > 100 µM
GI50 [18]: 3.09 µM
TGI [18]: 52.6 µM
GI50 [19]: > 25 µM
TGI [19]: > 66.5 µM
GI50 [20]: 4.39 µM
TGI [20]: > 100 µM
GI50 [21]: 3.98 µM
TGI [21]: 41.1 µM
GI50 [22]: 5.01 µM
TGI [22]: > 100 µM
GI50 [23]: 2.79 µM
TGI [23]: > 100 µM
GI50 [24]: 2.09 µM
TGI [24]: 8.52 µM
GI50 [25]: 4.19 µM
TGI [25]: 20 µM
GI50 [26]: 4.17 µM
TGI [26]: 35.4 µM
GI50 [27]: 4.2 µM
TGI [27]: > 100 µM
GI50 [28]: 3.05 µM
TGI [28]: 15 µM
GI50 [29]: 3.75 µM
TGI [29]: 31.3 µM
GI50 [30]: 8.79 µM
TGI [30]: > 100 µM
GI50 [31]: > 48.8 µM
TGI [31]: > 100 µM
GI50 [32]: 17.8 µM
TGI [32]: > 100 µM
GI50 [33]: > 21 µM
TGI [33]: > 75.9 µM
GI50 [34]: > 22.8 µM
TGI [34]: > 100 µM
GI50 [35]: 2.45 µM
TGI [35]: > 100 µM
GI50 [36]: 4.45 µM
TGI [36]: 42.9 µM
GI50 [37]: 2.54 µM
TGI [37]: 5.56 µM
GI50 [38]: 3.86 µM
TGI [38]: 27.8 µM
GI50 [39]: 3.4 µM
TGI [39]: 28.9 µM
GI50 [40]: 2.45 µM
TGI [40]: > 100 µM
GI50 [41]: 7.96 µM
TGI [41]: 51.7 µM
GI50 [42]: 2.55 µM
TGI [42]: 10.1 µM
GI50 [43]: 3.61 µM
TGI [43]: > 100 µM
GI50 [44]: 3.71 µM
TGI [44]: 31.7 µM
GI50 [45]: 2.88 µM
TGI [45]: > 100 µM
GI50 [46]: 1.74 µM
TGI [46]: > 100 µM
GI50 [47]: 5.81 µM
TGI [47]: > 100 µM
GI50 [48]: 5.5 µM
TGI [48]: 33.3 µM
GI50 [49]: 4.19 µM
TGI [49]: > 64.1 µM
GI50 [50]: 2.36 µM
TGI [50]: 7.83 µM
GI50 [51]: 2.77 µM
TGI [51]: > 100 µM
GI50 [52]: 3.82 µM
TGI [52]: 19.2 µM
GI50 [53]: 4.99 µM
TGI [53]: 81.4 µM
GI50 [54]: 2.02 µM
TGI [54]: 5.46 µM
GI50 [55]: 4.26 µM
TGI [55]: > 100 µM
